Measurements from US20140315889A1, “HYDROXAMATE DERIVATIVES FOR HDAC INHIBITOR, AND THE PHARMACEUTICAL COMPOSITION COMPRISING THEREOF” (CHONG KUN DANG PHARMACEUTICAL CORP., priority 2011, published 2014).
Read-outs that look alike come from different tables or passages of the source.

Legend:
Format in all cases: biochemical
Human recombinant HDAC1 = molecular target: T1, Human recombinant HDAC1 (Homo sapiens, UniProt Q13547); test: HDAC enzyme activity test, HDAC1; details: Table 12; read-out: Inhibition ability (IC50) HDAC1
T1 construct: purchased Enzo Life Science Co. (named for the kit; assigned to the enzyme from the BML- catalogue prefix) BML-SE456
T1 sequence (Q13547 whole entry): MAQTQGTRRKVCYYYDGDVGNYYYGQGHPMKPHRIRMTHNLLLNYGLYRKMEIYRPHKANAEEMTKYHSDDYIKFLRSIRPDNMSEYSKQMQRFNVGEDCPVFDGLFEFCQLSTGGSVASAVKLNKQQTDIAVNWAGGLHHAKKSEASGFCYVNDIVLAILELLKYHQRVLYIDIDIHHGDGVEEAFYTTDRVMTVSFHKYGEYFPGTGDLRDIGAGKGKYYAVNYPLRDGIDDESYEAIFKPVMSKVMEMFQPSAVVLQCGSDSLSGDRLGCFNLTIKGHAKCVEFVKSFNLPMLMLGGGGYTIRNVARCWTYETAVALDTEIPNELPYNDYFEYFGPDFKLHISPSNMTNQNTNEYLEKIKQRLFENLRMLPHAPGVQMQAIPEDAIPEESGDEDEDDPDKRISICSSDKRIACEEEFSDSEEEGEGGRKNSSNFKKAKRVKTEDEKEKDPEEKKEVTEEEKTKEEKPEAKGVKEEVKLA
Procedure: (§1) Then, 0.3 μg of enzyme and 10 μM of substrate per well were added, reacted at 30° C. for 60 minutes. Thereto, Fluor de Lys® Developer II (BML-KI176) was added and reacted for 30 minutes. […] From the data, the respective IC50 were calculated by GraphPad Prism 4.0 program.

human recombinant HDAC6 = molecular target: T2, human recombinant HDAC6 (Homo sapiens, UniProt Q9UBN7); test: HDAC enzyme activity test, HDAC6; details: for Selectivity for HDAC6, HD1/HD6: ratio HDAC1 IC50 / HDAC6 IC50
T2 construct: purchased Calibiochem Co. (so in the source) 382180
T2 sequence (Q9UBN7 1-1215): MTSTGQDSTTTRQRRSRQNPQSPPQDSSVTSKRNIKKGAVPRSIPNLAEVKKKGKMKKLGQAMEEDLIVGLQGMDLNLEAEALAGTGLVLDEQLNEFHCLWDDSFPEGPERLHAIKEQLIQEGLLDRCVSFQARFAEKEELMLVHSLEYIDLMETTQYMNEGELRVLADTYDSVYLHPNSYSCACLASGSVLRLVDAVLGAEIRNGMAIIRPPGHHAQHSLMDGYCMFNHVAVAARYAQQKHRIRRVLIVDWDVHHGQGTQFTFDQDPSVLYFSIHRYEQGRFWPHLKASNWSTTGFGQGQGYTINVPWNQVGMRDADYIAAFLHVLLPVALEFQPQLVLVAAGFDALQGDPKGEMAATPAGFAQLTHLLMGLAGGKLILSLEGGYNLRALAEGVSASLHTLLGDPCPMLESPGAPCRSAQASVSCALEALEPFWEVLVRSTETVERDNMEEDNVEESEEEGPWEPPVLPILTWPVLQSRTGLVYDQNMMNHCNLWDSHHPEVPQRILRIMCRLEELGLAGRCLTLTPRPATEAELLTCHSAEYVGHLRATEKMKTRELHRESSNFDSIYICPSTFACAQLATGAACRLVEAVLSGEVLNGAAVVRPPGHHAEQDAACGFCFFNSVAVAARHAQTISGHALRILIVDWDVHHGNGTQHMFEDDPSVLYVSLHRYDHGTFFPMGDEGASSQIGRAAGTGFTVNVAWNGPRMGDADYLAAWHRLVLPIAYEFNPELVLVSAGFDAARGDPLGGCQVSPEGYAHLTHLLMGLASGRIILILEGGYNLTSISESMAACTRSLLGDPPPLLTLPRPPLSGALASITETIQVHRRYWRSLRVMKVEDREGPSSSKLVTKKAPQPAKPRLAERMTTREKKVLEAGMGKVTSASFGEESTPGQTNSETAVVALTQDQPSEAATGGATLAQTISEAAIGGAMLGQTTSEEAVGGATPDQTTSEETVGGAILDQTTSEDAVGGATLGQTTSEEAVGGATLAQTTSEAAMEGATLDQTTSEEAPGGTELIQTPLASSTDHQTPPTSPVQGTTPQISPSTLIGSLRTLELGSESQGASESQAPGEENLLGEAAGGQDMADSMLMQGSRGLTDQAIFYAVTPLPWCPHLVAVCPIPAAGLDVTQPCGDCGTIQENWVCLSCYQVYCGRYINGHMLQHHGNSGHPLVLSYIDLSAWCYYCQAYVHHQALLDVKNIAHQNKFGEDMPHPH
Procedure: as §1

HDAC8 = molecular target: T3, HDAC8 (Homo sapiens, UniProt Q9BY41); test: HDAC enzyme activity test, HDAC8; details: Table 11, eleven HDAC isozymes; read-out: Inhibition ability (IC50) against HDAC8
T3 sequence (Q9BY41 1-377): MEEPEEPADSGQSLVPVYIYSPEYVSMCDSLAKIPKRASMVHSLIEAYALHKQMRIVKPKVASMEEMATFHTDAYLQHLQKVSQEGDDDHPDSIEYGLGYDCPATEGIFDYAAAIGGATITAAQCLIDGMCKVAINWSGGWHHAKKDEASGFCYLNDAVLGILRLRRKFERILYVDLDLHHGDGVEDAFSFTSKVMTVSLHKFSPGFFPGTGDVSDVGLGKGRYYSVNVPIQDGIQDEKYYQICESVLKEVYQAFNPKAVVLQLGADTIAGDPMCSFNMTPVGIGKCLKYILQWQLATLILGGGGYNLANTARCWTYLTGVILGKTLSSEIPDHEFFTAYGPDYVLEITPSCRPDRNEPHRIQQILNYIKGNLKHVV
Procedure: as §1

[1] = Table 12, read-out: Inhibition ability (IC50) HDAC6

SMILES | IC50 (Human recombinant HDAC1) [nM] | IC50 (human recombinant HDAC6; Table 11, eleven HDAC isozymes, read-out: Inhibition ability (IC50) against HDAC6) [nM] | Selectivity for HDAC6, HD1/HD6 (human recombinant HDAC6; Table 12) | IC50 (human recombinant HDAC6; [1]) [nM] | IC50 (HDAC8) [nM] | selectivity for HDAC6 over HDAC1 (human recombinant HDAC6; from the data of Table 12)
CC1(C)CC(=O)c2c(n(CCCCCC(=O)NO)c3ccc(F)cc23)C1 [Compound 55, 6-(6-fluoro-2,2-dimethyl-4-oxo-1,2,3,4-tetrahydrocarbazol-9-yl)-N-hydroxyhexanamide] | 4080 | 228 | 72.5 | 56.4 | 507 | –
O=C(NO)c1ccc(Cn2c3c(c4cc(F)ccc42)C(=O)N(CCN2CCC[C@@H]2CO)CC3)cc1 [Compound 289, (R)-4-((8-fluoro-2-(2-(2-(hydroxymethyl)pyrrolidin-1-yl)ethyl)-1-oxo-1,2,3,4-tetrahydropyrido[4,3-b]indol-5-yl)methyl)-N-hydroxybenzamide] | 7980 | – | 691.2 | 11.5 | – | –
O=C(NO)c1ccc(Cn2c3c(c4cc(F)ccc42)C(=O)N(CCN2CCC[C@H]2CO)CC3)cc1 [Compound 290, (S)-4-((8-fluoro-2-(2-(2-(hydroxymethyl)pyrrolidin-1-yl)ethyl)-1-oxo-1,2,3,4-tetrahydropyrido[4,3-b]indol-5-yl)methyl)-N-hydroxybenzamide] | 6410 | – | 2925.1 | 2.19 | – | more than 2,900 times
CN1CCCN(CCN2CCc3c(c4cc(F)ccc4n3Cc3ccc(C(=O)NO)cc3)C2=O)CC1 [Compound 291, 4-((8-fluoro-2-(2-(4-methyl-1,4-diazepan-1-yl)ethyl)-1-oxo-1,2,3,4-tetrahydropyrido[4,3-b]indol-5-yl)methyl)-N-hydroxybenzamide] | 7920 | – | 426.3 | 18.6 | – | –
CN(CCO)CCN1CCc2c(c3cc(F)ccc3n2Cc2ccc(C(=O)NO)cc2)C1=O [Compound 292, 4-((8-fluoro-2-(2-((2-hydroxyethyl)(methyl)amino)ethyl)-1-oxo-1,2,3,4-tetrahydropyrido[4,3-b]indol-5-yl)methyl)-N-hydroxybenzamide] | 10000 | – | 781.3 | 12.8 | – | –
O=C(NO)c1ccc(Cn2c3ccc(F)cc3c3c(=O)[nH]ccc32)cc1 [Compound 305, 4-((8-fluoro-1-oxo-1,2-dihydropyrido[4,3-b]indol-5-yl)methyl)-N-hydroxybenzamide] | 2450 | – | 980.4 | 2.5 | – | –
O=C(NO)c1ccc(Cn2c3c(c4cc(F)ccc42)C(=O)NCC3)cc1 [Compound 306, 4-((8-fluoro-1-oxo-1,2,3,4-tetrahydropyrido[4,3-b]indol-5-yl)methyl)-N-hydroxybenzamide] | 3230 | – | 1041.9 | 3.1 | – | –
O=C(CCCCCn1c2c(c3cc(F)ccc31)C(=O)C(CN1CCOCC1)CC2)NO (stereo not drawn) [Compound 321, 6-(6-fluoro-3-(morpholinomethyl)-4-oxo-1,2,3,4-tetrahydrocarbazol-9-yl)-N-hydroxyhexanamide] | 13300 | – | 121.8 | 110 | – | –
O=C(CCCCCn1c2c(c3cc(F)ccc31)C(=O)C(CN1CCN(c3ccc(F)cc3)CC1)CC2)NO (stereo not drawn) [Compound 322, 6-(6-fluoro-3-((4-(4-fluorophenyl)piperazin-1-yl)methyl)-4-oxo-1,2,3,4-tetrahydrocarbazol-9-yl)-N-hydroxyhexanamide] | 7440 | – | 40.8 | 182 | – | –
CC1CN(CC2CCc3c(c4cc(F)ccc4n3CCCCCC(=O)NO)C2=O)CC(C)O1 (stereo not drawn) [Compound 323, 6-(3-((2,6-dimethylmorpholino)methyl)-6-fluoro-4-oxo-1,2,3,4-tetrahydrocarbazol-9-yl)-N-hydroxyhexanamide] | 8970 | – | 102.2 | 87.8 | – | –
CC(C)(C)OC(=O)N1CCN(CC2CCc3c(c4cc(F)ccc4n3CCCCCC(=O)NO)C2=O)CC1 (stereo not drawn) [Compound 324, tert-butyl 4-((6-fluoro-9-(6-(hydroxyamino)-6-oxohexyl)-4-oxo-2,3,4,9-tetrahydro-1H-carbazol-3-yl)methyl)piperazine-1-carboxylate] | 11600 | – | 113.2 | 103 | – | –
O=C(CCCCCCn1c2c(c3cc(F)ccc31)C(=O)CCC2)NO [Compound 325, 7-(3-fluoro-5-oxo-5,6,7,8-tetrahydrocarbazol-9-yl)-N-hydroxyheptanamide] | 93.8 | – | 31.3 | 3 | – | –
CCCCN1CCN(CC2CCc3c(c4cc(F)ccc4n3CCCCCC(=O)NO)C2=O)CC1 (stereo not drawn) [Compound 326, 6-(3-((4-butylpiperazin-1-yl)methyl)-6-fluoro-4-oxo-1,2,3,4-tetrahydrocarbazol-9-yl)-N-hydroxyhexanamide] | 10100 | – | 103.3 | 97.6 | – | –
Cc1c2c(n(CCCCCCC(=O)NO)c1C)CCCC2=O [Compound 328, 7-(2,3-dimethyl-4-oxo-4,5,6,7-tetrahydro-1H-indol-1-yl)-N-hydroxyheptanamide] | 3210 | – | 145.1 | 22.1 | – | –
O=C(CCCCCCn1c2c(c3cc(F)ccc31)C(=O)C(CN1CCOCC1)CC2)NO (stereo not drawn) [Compound 344, 7-(6-fluoro-3-(morpholinomethyl)-4-oxo-1,2,3,4-tetrahydrocarbazol-9-yl)-N-hydroxyheptanamide] | 102 | – | 6.3 | 16.2 | – | –
Cc1cc2c(n1CCCCCC(=O)NO)CC(C)(C)CC2=O [Compound 345, N-hydroxy-6-(2,6,6-trimethyl-4-oxo-4,5,6,7-tetrahydroindol-1-yl)hexanamide] | 402 | – | 14.3 | 28.1 | – | –
Cc1cc2c(n1CCCCCCC(=O)NO)CCCC2=O [Compound 346, N-hydroxy-7-(2-methyl-4-oxo-4,5,6,7-tetrahydroindol-1-yl)heptanamide] | 255 | – | 10.2 | 25 | – | –
Cc1cc2c(n1CCCCCCC(=O)NO)CC(C)(C)CC2=O [Compound 347, N-hydroxy-7-(2,6,6-trimethyl-4-oxo-4,5,6,7-tetrahydroindol-1-yl)heptanamide] | 453 | – | 16.8 | 27 | – | –
Cc1c2c(n(CCCCCC(=O)NO)c1C)CC(C)(C)CC2=O [Compound 350, N-hydroxy-6-(2,3,6,6-tetramethyl-4-oxo-4,5,6,7-tetrahydro-1H-indol-1-yl)hexanamide] | 1000 | – | 9.8 | 102 | – | –
